According to patent publication US10829473B2, “Modulators of the cystic fibrosis transmembrane conductance regulator protein and methods of use” (AbbVie Overseas S.Á.R.L., priority 2017, dated 2020):
Where two headings read alike, the source gives them in different places. Marks after values point to notes of the source that are not given here.

Molecular target: T1, F508delCFTR (Homo sapiens, UniProt P13569, DEL508-508)
T1 construct: expressed in transfected cells; host or cells: CFBE41o- human lung derived epithelial cells (CFBE41o-F508delCFTR-HRP), doxycycline-inducible
Assay: Cell Surface Expression-Horse Radish Peroxidase (CSE-HRP) Assay;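 as to EC50 (with co-corrector): co-corrector chromenyl benzoic acid corrector at 2 or 3 µM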;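 as to Maximum % activity (without co-corrector): % of on-plate positive control chromenyl benzoic acid corrector at 2 or 3 µM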
Format: cell-based
Conditions: for Maximum % activity (with co-corrector) / Emax: maximum at any tested concentration; for Emax: read-out: Maximum % activity (without co-corrector)
Procedure, shortened: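 Corrector compounds were given as 8-point 3-fold series from 20 or 30 μM, with or without a 2 μM co-corrector, for 18-24 h at 33 °C. Surface HRP was read by luminol luminescence as % of positive control; variable-Hill-slope sigmoidal fitting gave EC50 from triplicate plates.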

[1] = test compound with co-corrector
[2] = test compound with co-corrector, read-out: EC50 (with co-corrector)
[3] = test compound without co-corrector
[4] = test compound alone, without co-corrector, read-out: EC50 (without co-corrector)
[5] = with co-corrector, read-out: EC50 (with co-corrector)

T1 sequence (P13569 with tags, fused parts or gaps DEL508-508): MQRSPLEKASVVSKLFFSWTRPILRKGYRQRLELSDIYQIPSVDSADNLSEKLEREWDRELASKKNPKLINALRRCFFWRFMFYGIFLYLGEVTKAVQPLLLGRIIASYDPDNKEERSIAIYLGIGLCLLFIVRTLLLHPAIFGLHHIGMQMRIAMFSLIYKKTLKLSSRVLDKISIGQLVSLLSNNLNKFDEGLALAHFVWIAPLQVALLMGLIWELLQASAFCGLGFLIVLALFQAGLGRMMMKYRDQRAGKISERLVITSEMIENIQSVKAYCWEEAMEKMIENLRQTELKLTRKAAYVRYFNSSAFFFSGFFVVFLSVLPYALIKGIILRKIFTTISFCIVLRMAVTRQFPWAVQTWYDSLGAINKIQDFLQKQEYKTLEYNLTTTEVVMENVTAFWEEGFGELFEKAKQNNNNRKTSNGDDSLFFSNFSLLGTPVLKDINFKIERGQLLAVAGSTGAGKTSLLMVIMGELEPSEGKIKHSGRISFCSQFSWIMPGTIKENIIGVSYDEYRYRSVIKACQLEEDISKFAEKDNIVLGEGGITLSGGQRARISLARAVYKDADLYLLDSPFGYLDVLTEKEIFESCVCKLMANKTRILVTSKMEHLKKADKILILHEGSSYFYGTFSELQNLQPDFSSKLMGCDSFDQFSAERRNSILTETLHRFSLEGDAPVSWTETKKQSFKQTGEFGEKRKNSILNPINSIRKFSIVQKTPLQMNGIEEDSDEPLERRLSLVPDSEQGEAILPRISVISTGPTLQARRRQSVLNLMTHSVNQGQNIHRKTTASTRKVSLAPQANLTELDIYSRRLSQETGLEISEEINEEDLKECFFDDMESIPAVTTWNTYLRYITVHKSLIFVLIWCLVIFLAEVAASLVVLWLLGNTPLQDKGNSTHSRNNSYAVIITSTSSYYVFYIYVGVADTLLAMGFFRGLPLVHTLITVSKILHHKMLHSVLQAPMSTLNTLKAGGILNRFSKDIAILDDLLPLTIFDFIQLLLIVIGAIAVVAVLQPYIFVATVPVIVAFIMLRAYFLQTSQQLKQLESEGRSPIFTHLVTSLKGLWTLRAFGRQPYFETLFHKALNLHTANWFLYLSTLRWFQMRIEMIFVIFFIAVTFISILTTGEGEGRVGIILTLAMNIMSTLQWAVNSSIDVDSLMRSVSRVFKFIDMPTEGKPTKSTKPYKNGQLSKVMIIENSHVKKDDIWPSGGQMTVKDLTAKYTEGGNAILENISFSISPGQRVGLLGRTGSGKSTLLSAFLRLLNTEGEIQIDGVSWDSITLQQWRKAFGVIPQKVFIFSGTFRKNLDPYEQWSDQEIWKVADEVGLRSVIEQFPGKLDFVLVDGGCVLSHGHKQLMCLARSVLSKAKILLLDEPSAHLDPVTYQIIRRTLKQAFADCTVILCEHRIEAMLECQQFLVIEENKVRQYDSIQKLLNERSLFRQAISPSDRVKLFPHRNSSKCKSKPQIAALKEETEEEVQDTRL

Row | Maximum % activity (with co-corrector) [1] | EC50 [2] [µM] | EC50 (without co-corrector) [3] | Emax [3] [%] | EC50 (with co-corrector) [1] | EC50 [4] [µM] | Maximum % activity (with co-corrector) (with co-corrector) | EC50 [5] [µM] | Emax (without co-corrector) [%] | EC50 (test compound without co-corrector, read-out: EC50 (without co-corrector)) [µM] | Compound
1 | ++ (≥150 and <350) | 3 to 10 | ++^a | 50 to 150 | – | – | – | – | – | – | O=C(NS(=O)(=O)c1cccc2ncccc12)C1(c2cc(C3CCC3)cnc2N2CCOCC2)CC1 [GII-28, 1-[5-cyclobutyl-2-(morpholin-4-yl)pyridin-3-yl]-N-(quinoline-5-sulfonyl)cyclopropane-1-carboxamide]
2 | ++ (≥150 and <350) | – | ++^a | 50 to 150 | ++^a | – | – | – | – | – | COc1cc(C)c(C2(C(=O)NS(=O)(=O)c3cccc4ncccc34)CC2)cn1 [GII-23, 1-(6-methoxy-4-methylpyridin-3-yl)-N-(quinoline-5-sulfonyl)cyclopropane-1-carboxamide]
3 | ++ (≥150 and <350) | – | ++^a | 50 to 150 | ++^a | – | – | – | – | – | COc1cc(C2(C(=O)NS(=O)(=O)c3cccc4nc(C)ccc34)CC2)c(OC(F)F)cn1 [GIII-22]
4 | – | – | – | – | – | 3 to 10 | +++ (≥350) | < 3 | > 150 | – | Cc1ccc(OC2COC2)c(C2(C(=O)NS(=O)(=O)c3cccc4ncccc34)CC2)c1 [Example I-93, 1-{5-methyl-2-[(oxetan-3-yl)oxy]phenyl}-N-(quinoline-5-sulfonyl)cyclopropane-1-carboxamide]
5 | – | – | – | – | – | > 10 | ++ (≥150 and <350) | 3 to 10 | < 50 | – | Cc1noc(C)c1S(=O)(=O)NC(=O)C1(c2ccc(Cl)cc2Cl)CC1 [Example III-12, 1-(2,4-dichlorophcnyl)-N-(3,5-dimethyl-1,2-oxazole-4-sulfonyl)cyclopropane-1-carboxamide]
6 | – | – | – | – | – | < 3 | +++ (≥350) | < 3 | > 150 | – | COCC1(c2ccc(OC)c(C3(C(=O)NS(=O)(=O)c4cccc5ncccc45)CC3)c2)CC1 [Example I-73, 1-{2-methoxy-5-[1-(methoxymethyl)cyclopropyl]phenyl}-N-(quinoline-5-sulfonyl)cyclopropane-1-carboxamide]
7 | – | – | – | – | – | > 10 | + (<150) | > 10 | < 50 | – | O=C(NS(=O)(=O)c1ccc(-c2ccno2)s1)C1(c2ccc(Cl)cc2Cl)CC1 [Example III-17, 1-(2,4-dichlorophenyl)-N-[5-(1,2-oxazol-5-yl)thiophene-2-sulfonyl]cyclopropane-1-carboxamide]
8 | – | – | – | – | – | < 3 | +++ (≥350) | < 3 | > 150 | – | COc1ccc(C(C)C)cc1C1(C(=O)NS(=O)(=O)c2cccc3c2CCCN3)CC1 [II-26]
9 | ++ (≥150 and <350) | 3 to 10 | – | 50 to 150 | – | – | – | – | – | 3 to 10 | CC(C)Oc1ncccc1C1(C(=O)NS(=O)(=O)c2cccc3ccccc23)CC1 [GII-2, N-(naphthalene-1-sulfonyl)-1-{2-[(propan-2-yl)oxy]pyridin-3-yl}cyclopropane-1-carboxamide]
10 | – | – | – | – | – | < 3 | +++ (≥350) | < 3 | > 150 | – | COc1ncc(C2CCC2)cc1C1(C(=O)NS(=O)(=O)c2cccn3nccc23)CC1 [Example I-19, 1-(5-cyclobutyl-2-methoxypyridin-3-yl)-N-(pyrazolo[1,5-a]pyridine-4-sulfonyl)cyclopropane-1-carboxamide]
11 | – | – | – | – | – | < 3 | +++ (≥350) | < 3 | > 150 | – | CC(C)COc1cnc(C2CC2)c(C2(C(=O)NS(=O)(=O)c3cccc4ncccc34)CC2)c1 [Example GI-12, 1-[2-cyclopropyl-5-(2-methylpropoxy)pyridin-3-yl]-N-(quinoline-5-sulfonyl)cyclopropane-1-carboxamide]
